This passage reports viability and IC50 results from ChEMBL document CHEMBL4602661, “Immunosuppressive Nor-isopimarane Diterpenes from Cultures of the Fungicolous Fungus Xylaria longipes HFG1018” (J Nat Prod, 2020).

The nature of data set [1]: Cytotoxicity against BALB/C mouse T lymphocytes assessed as cell viability at 40 uM after 8 to 10 hrs by CCK-8 assay relative to control. The following applies: read-out: Activity. The data set is classed as cell-based. On the technique in general: Tetrazolium dyes change colour on reduction, which living cells bring about.
A short description of data set [2]: Cytotoxicity against BALB/C mouse B lymphocytes assessed as cell viability at 40 uM after 8 to 10 hrs by CCK-8 assay relative to control. The data set is classed as cell-based. The following applies: read-out: Activity.
A further data set deals with T-cell. In words: Immunosuppressive activity against BALB/C mouse T lymphocytes assessed as reduction in concanavalin A-induced cell proliferation by measuring [3H]-thymidine uptake incubated for 8 hrs by Beta scintillation counting method. Format: functional, cell-based.
The next data set relates to B-cell line. The data set can be described thus: Immunosuppressive activity against BALB/C mouse B lymphocytes assessed as reduction in LPS-induced cell proliferation by measuring [3H]-thymidine uptake incubated for 8 hrs by Beta scintillation counting method. The data set is classed as functional, cell-based.

Consider `CC1(O)CCC[C@]2(C)C3=C(C[C@@]4(C)CCO[C@@H]3C4)[C@@H](O)C[C@@H]12` (stereo partly drawn), for which the viability at 40 µM in data set [1] and in data set [2] was > 85% in each case.
In the case of `C=C1CC[C@H]2[C@@](C)(CO)CCC[C@]2(C)[C@H]1CC/C(C)=C/CO`, the IC50 worked out at 15.6 µM in the data set with T-cell and 47.2 µM in the data set with B-cell line. For the same compound, the viability at 40 µM in data set [1] and in data set [2] was > 85% each time.
On to `C[C@@]12CCO[C@@H]1C1=CC[C@H]3[C@](C)(O)[C@H](O)CC[C@]3(C)[C@H]1CC2`, for which the viability at 40 µM in data set [1] and in data set [2] was > 85% in each case.
As to `C[C@]1(CCO)CCC2=C(C1)C(=O)C[C@H]1[C@](C)(O)CCC[C@]21C`, the viability at 40 µM in data set [1] and in data set [2] was > 85% each time.
As to `C[C@]1(CCO)CC[C@H]2C(=CC[C@@H]3[C@]2(C)CCC[C@@]3(C)O)C1`, the IC50 in the data set on T-cell was 1 µM; in the data set with B-cell line, 16.1 µM. Besides, the viability at 40 µM in data set [1] and in data set [2] was > 85% throughout.
On to `C[C@@]12CCO[C@@H]1C1=CC[C@H]3[C@](C)(CO)CCC[C@]3(C)[C@H]1CC2`, for which the viability at 40 µM in data set [1] and in data set [2] was > 85% throughout.
For `C[C@@]12CCO[C@@H]1C1=CC[C@H]3[C@@](O)(CO)CCC[C@]3(C)[C@H]1CC2`, the IC50 in the data set with T-cell stood at 11.1 µM; in the data set with B-cell line, 35.1 µM. Further, the viability at 40 µM in data set [1] and in data set [2] was > 85% throughout.
In the case of `C[C@@]12CCO[C@@H]1C1=CC[C@@H]3[C@](C)(CCC[C@@]3(C)O)[C@H]1CC2`, the IC50 in the data set with T-cell amounted to 27.2 µM; in the data set with B-cell line, 40 µM. The viability at 40 µM in data set [1] and in data set [2] was > 85% each time.
Take `C[C@@]12CCO[C@@H]1C1=CC[C@H]3[C@@](C)(O)[C@@H](O)CC[C@]3(C)[C@H]1CC2`: the viability at 40 µM in data set [1] and in data set [2] was > 85% in each case.
Take `C[C@@]12CCO[C@@H]1C1=CC[C@@H]3[C@](C)(CCC[C@]3(C)O)[C@H]1CC2`: the IC50 is 21.1 µM in the data set on T-cell and 51.8 µM in the data set with B-cell line. Besides, the viability at 40 µM in data set [1] and in data set [2] was > 85% each time.
On to `C[C@]12CC[C@H]3C(=CC[C@@H]4[C@]3(C)CCC[C@@]4(C)O)[C@H]1OC[C@@H]2O`, for which the viability at 40 µM in data set [1] and in data set [2] was > 85% throughout.
Consider `C[C@@]12CCO[C@@H]1C1=CC[C@H]3[C@](C)(O)[C@@H](O)CC[C@]3(C)[C@H]1CC2`, for which the viability at 40 µM in data set [1] and in data set [2] was > 85% each time.
`C[C@]12CCC[C@@](C)(O)[C@@H]1CC=C1[C@H]3OC[C@@H](O)[C@@]3(C)CC[C@@H]12`: the results for the IC50 in the data set with T-cell and with B-cell line were 4 µM and 46 µM, respectively. Also, the viability at 40 µM in data set [1] and in data set [2] was > 85% in each case.
`C[C@@]12CCO[C@@H]1C1=C[C@@H](O)[C@@H]3[C@](C)(CCC[C@]3(C)O)[C@H]1CC2`: the IC50 worked out at 14.9 µM in the data set on T-cell and 49.4 µM in the data set on B-cell line. The viability at 40 µM in data set [1] and in data set [2] was > 85% throughout.
Consider `C[C@@]1(CCO)CC2=CC[C@@H]3[C@](C)(CCC[C@@]3(C)O)[C@H]2[C@H](O)C1`, for which the viability at 40 µM in data set [1] and in data set [2] was > 85% throughout.
Regarding `C[C@@]12CCO[C@@H]1C1=CC[C@H]3[C@H](O)CCC[C@]3(C)[C@H]1CC2`, the viability at 40 µM in data set [1] and in data set [2] was > 85% each time.
`C[C@]1(CCO)CC[C@H]2C(=CC[C@@H]3[C@]2(C)CCC[C@]3(C)O)C1`: the viability at 40 µM in data set [1] and in data set [2] was > 85% each time.
Take `C[C@]1(CCO)CC[C@H]2C(=CC[C@H]3[C@H](O)CCC[C@]23C)C1`: the viability at 40 µM in data set [1] and in data set [2] was > 85% throughout.
Take `C[C@@]12CCO[C@@H]1C1=CC[C@H]3[C@H](CO)CCC[C@]3(C)[C@H]1CC2`: the IC50 was determined as 6.6 µM with T-cell and 38.2 µM in the data set on B-cell line. In addition, the viability at 40 µM in data set [1] and in data set [2] was > 85% in each case.
`C[C@]1(CCO)CC=C2C(=CC[C@H]3[C@](C)(O)CCC[C@]23C)C1`: the viability at 40 µM in data set [1] and in data set [2] was > 85% throughout.
For `C[C@@H]1C[C@H]2[C@@H]3CCC4=CC(=O)C=C[C@]4(C)[C@@]3(F)[C@@H](O)C[C@]2(C)[C@@]1(O)C(=O)CO` [DEXAMETHASONE], the IC50 is 1.6 µM with T-cell and 0.8 µM in the data set with B-cell line.

One may read the IC50 as the concentration needed to halve the response being measured.
